ChEMBL document CHEMBL1140557, “SAR studies of 1,5-diarylpyrazole-based CCK1 receptor antagonists” (Bioorg Med Chem Lett, 2007)

Legend:
[1] = Oral bioavailability in rat at 2 umol/kg; type: ADME, organism-based; conditions: in vivo
[2] = Half life in rat; type: ADME, organism-based; conditions: in vivo

COc1ccc(-n2nc(C[C@H](C(=O)O)c3cccc(C)c3)cc2-c2ccc(Cl)c(Cl)c2)cc1 gave a bioavailability [1] of 100% and a half-life [2] of 5.6 h.
